We go through ten compounds from US11964988B2, “Fused heterocyclic compounds as RET kinase inhibitors” (ARRAY BIOPHARMA INC., priority 2018, dated 2024).

SMILES strings stand for the structures. Changes are numbered by the printed parent chain.

Test [1] has as its target T1, HEK-293 cells expressing a Kif5b-RET fusion protein (Homo sapiens, UniProt P07949).
T1 construct: KIF5B (N-terminal portion incl. coiled-coil); expressed in transfected cells; host or cells: HEK-293; the other entry of the earlier key: KIF5B (P33176, Kinesin-1 heavy chain)
T1 sequence (P07949 713-1063 limits assumed): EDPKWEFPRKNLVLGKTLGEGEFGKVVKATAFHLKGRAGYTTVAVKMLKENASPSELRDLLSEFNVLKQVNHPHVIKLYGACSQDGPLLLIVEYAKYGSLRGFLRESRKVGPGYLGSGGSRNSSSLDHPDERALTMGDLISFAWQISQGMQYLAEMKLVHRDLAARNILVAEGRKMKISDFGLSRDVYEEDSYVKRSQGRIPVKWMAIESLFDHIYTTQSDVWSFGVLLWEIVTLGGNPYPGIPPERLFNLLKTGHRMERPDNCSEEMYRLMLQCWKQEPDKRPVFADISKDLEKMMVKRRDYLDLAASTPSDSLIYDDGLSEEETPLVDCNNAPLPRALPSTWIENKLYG
The test is described as follows: RET Cell Assay (phospho-RET Tyr1062). Type of test: cell-based. As to conditions: HEK-293 Kif5b-RET, 1 hour incubation, phospho-RET normalized to GAPDH; read-out: KIF5B-RET pTYR1062 Cell IC50. As to the method:
(§1) The cellular potency of compounds inhibiting RET kinase were determined in HEK-293 cells expressing a Kif5b-RET fusion protein. Briefly, HEK-293 cells expressing a Kif5b-RET fusion protein were plated at 50K cells/well in 96 well poly-D-Lysine coated plates the day prior to the assay. The cells were incubated for 1 hour with test compound in DMEM (Dulbecco's Modified Eagle Medium) at a final DMSO concentration of 0.5%. […] After 1 hour the media was removed, the cells were fixed with 3.8% formaldehyde for 20 min, washed with PBS, and permeabilized for 10 min with 100% methanol. The plates were then washed with PBS-0.05% Tween20, and blocked with LI-COR Blocking solution (LI-COR Catalog No. 927-40000) for 1 hour. Plates were washed with PBS-0.05% Tween20, then incubated with anti-phospho-RET (Tyr1062) (Santa Cruz Catalog No. sc-20252-R) antibody and anti-GAPDH (Millipore Catalog No. MAB374) antibody for 2 hours. The plates were washed with PBS-0.05% Tween20, and incubated with anti-rabbit 680 (Molecular Probes Catalog No. A21109) and anti-mouse 800 (LI-COR Catalog No. 926-32210) secondary antibodies for 1 hour. All antibodies were diluted in LI-COR Block containing 0.05% Tween. The plates were washed with PBS-0.05% Tween20,100 μL PBS is added to each well, and the plates were read on a LI-COR Aerius fluorescent plate reader. The phospho-RET signal was normalized to the GAPDH signal. […] The POC values were fit to a 4 parameter logistic curve. The IC50 value is the point where the curve crosses 50 POC.

A further test addresses RET kinase Wild Type (Homo sapiens, UniProt P07949). Kind of test: biochemical.
Test [2] concerns the target T2, HEK-293 cells expressing a G810S mutant RET Kif5b-RET fusion protein (Homo sapiens, UniProt P07949, G810S).
T2 construct: KIF5B (N-terminal portion incl. coiled-coil); expressed in transfected cells; host or cells: HEK-293
T2 sequence (P07949 713-1063 G810S limits assumed): T1 sequence (P07949 713-1063 limits assumed) with G98S
The test is described as follows: RET G810S Mutant Cell Assay (phospho-RET Tyr1062). Type of test: cell-based. As to conditions: HEK-293 Kif5b-RET G810S, 1 hour incubation, phospho-RET normalized to GAPDH. As to the method: as §1, with “expressing a G810R or G810S mutant RET Kif5b-RET fusion” for “expressing a Kif5b-RET fusion”, “μL PBS was added to” for “μL PBS is added to”, “POC values are fit to” for “POC values were fit to”

The target in the next test is G810R mutant RET kinase (Homo sapiens, UniProt P07949, G810R). The test is described as follows: biochemical.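 Note: HTRF KinEASE-TK enzymatic assay with 1 nM recombinant RET G810R, 1 h at 22 °C, dual-wavelength ratiometric readout, 100% control without compound, 0% from pre-quenched reactions.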
G810R mutant RET kinase, sequence (P07949 29-1114 G810R): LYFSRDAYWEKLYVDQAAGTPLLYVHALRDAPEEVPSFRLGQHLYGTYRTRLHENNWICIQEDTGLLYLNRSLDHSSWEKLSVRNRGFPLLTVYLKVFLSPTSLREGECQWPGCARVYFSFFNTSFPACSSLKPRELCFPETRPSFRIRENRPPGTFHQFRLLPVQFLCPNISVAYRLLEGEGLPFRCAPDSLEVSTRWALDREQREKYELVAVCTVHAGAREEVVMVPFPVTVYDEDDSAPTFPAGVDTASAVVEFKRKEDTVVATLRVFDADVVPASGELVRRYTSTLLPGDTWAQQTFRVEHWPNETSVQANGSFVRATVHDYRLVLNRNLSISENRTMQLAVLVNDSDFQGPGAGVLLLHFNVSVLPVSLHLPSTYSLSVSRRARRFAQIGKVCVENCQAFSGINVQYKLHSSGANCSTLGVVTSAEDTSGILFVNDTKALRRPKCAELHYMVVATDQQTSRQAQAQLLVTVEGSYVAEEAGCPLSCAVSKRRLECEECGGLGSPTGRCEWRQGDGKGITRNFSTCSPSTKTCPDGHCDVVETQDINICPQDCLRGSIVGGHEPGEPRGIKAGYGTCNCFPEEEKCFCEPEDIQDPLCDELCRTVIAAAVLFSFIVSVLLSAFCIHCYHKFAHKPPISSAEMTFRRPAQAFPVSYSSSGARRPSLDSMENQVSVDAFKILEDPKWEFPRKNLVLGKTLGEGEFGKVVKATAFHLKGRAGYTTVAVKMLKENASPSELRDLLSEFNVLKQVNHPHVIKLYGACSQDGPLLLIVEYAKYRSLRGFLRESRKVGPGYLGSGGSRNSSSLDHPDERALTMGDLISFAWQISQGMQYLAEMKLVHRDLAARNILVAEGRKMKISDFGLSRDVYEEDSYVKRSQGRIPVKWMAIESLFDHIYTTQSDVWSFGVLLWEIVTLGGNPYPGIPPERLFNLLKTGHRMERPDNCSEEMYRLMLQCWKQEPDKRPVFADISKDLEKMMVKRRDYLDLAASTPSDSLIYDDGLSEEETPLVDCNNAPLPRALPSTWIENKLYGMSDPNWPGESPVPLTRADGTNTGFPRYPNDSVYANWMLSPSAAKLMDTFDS
For a further test, the target named is RET kinase V804M (Homo sapiens, UniProt P07949, V804M). The test is described as follows: RET Enzyme Assay (CisBio HTRF KinEASE-TK), V804M. Type of test: biochemical. As to conditions: read-out: RET V804M Enz FRET IC50.
RET kinase V804M, sequence (P07949 29-1114 V804M): as the sequence (P07949 29-1114 G810R) above, with V776M, R782G counted along it
The target of another test is G810S mutant RET kinase (Homo sapiens, UniProt P07949, G810S). Kind of test: biochemical.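 Note: HTRF KinEASE-TK kinase assay with recombinant enzyme, 1 h at 22 °C, dual-wavelength ratiometric read-out, percent of control (DMSO-only = 100, pre-quenched reaction = 0).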
G810S mutant RET kinase, sequence (P07949 29-1114 G810S): as the sequence (P07949 29-1114 G810R) above, with R782S counted along it

RET kinase Wild Type, sequence (P07949 29-1114): as the sequence (P07949 29-1114 G810R) above, with R782G counted along it
Description for G810R mutant RET kinase: (§2) The potency of compounds inhibiting several different RET kinase forms (Wild Type, V804M, G810R, & G810S) were determined using CisBio's HTRF® KinEASE™-TK assay technology. […] After a 1 hour incubation at 22° C., the extent of reaction was determined using a PerkinElmer EnVision multimode plate reader via HTRF dual wavelength detection, and the percent of control (POC) was calculated using a ratiometric emission factor. One hundred POC was determined using DMSO only samples (no compound present), and 0 POC was determined using pre-quenched control reactions.
The potency of a compound inhibiting G810R or G810S mutant RET kinase was determined using CisBio's HTRF® KinEASE™-TK assay technology. The assays contained G810R or G810S mutant RET produced at Array Biopharma, Inc. (1 nM enzyme). […] After a 1-h incubation at 22° C., the extent of reaction was determined using a PerkinElmer EnVision multimode plate reader via HTRF dual wavelength detection, and the percent of control (POC) was calculated using a ratiometric emission factor. One hundred POC was determined using no test compounds, and 0 POC was determined using pre-quenched control reactions.
Description for RET kinase Wild Type: as §2

In the case of `COC(=O)c1ccc(-n2c3c(c4c(N)ncnc42)-c2noc(C4CC4)c2C(O)CC3)cc1` (stereo not drawn) [Example 113, Methyl 4-(11-amino-3-cyclopropyl-4-hydroxy-5,6-dihydroisoxazolo[4″,3″:6′,7′]cyclohepta[1′,2′:4,5]pyrrolo[2,3-d]pyrimidin-7(4H)-yl)benzoate 2,2,2-trifluoroacetate], the IC50 in test [1] was 0.513 µM; on RET kinase Wild Type, 0.102 µM; in test [2] it was 0.274 µM; at G810R mutant RET kinase, 0.106 µM; on RET kinase V804M, 0.169 µM; at G810S mutant RET kinase, 0.063 µM.
Take `COC(=O)[C@H]1C[C@@H](n2c3c(c4c(N)ncnc42)-c2noc(C4CC4)c2C(O)CC3)C1` (stereo partly drawn) [Example 137, Methyl (1s,3s)-3-(11-amino-3-cyclopropyl-4-hydroxy-5,6-dihydroisoxazolo[4″,3″:6′,7′]cyclohepta[1′,2′:4,5]pyrrolo[2,3-d]pyrimidin-7(4H)-yl)cyclobutane-1-carboxylate 2,2,2-trifluoroacetate]: the half-maximal inhibitory concentration (IC50) in test [1] worked out at 0.067 µM; at RET kinase Wild Type, 0.038 µM; in test [2], 0.28 µM; against G810R mutant RET kinase it was 0.052 µM; at RET kinase V804M it was 0.06 µM; on G810S mutant RET kinase it was 0.155 µM.
As to `Nc1ncnc2c1c1c(n2C(CF)CF)CCC(O)c2c-1noc2C1CC1` (stereo not drawn) [Example 122, 11-amino-3-cyclopropyl-7-(1,3-difluoropropan-2-yl)-4,5,6,7-tetrahydro-isoxazolo[4″,3″:6′,7′]cyclohepta[1′,2′:4,5] pyrrolo[2,3-d]pyrimidin-4-ol], the half-inhibitory concentration (IC50) in test [1] was determined as 0.031 µM; against RET kinase Wild Type, 0.014 µM; in test [2], 0.077 µM; on G810R mutant RET kinase, 0.028 µM; at RET kinase V804M, 0.038 µM; on G810S mutant RET kinase, 0.026 µM.
As for `Nc1ncnc2c1c1c(n2C2CCC(O)C2)CCC(=O)c2c-1noc2C1CC1` (mixture of isomers) [Example 128, 11-Amino-3-cyclopropyl-7-(3-hydroxycyclopentyl)-6,7-dihydroisoxazolo[4″,3″:6′,7′]cyclohepta[1′,2′:4,5]pyrrolo[2,3-d]pyrimidin-4(5H)-one 2,2,2-trifluoroacetate], the IC50 in test [1] came out at 0.157 µM; against RET kinase Wild Type, 0.088 µM; in test [2], 0.435 µM; against G810R mutant RET kinase, 0.098 µM; on RET kinase V804M, 0.349 µM; on G810S mutant RET kinase, 0.16 µM.
For `Nc1ncnc2c1c1c(n2[C@@H]2C[C@@H](O)[C@@H](O)C2)CCC(O)c2c-1noc2C1CC1` (stereo partly drawn) [Example 130, (1r,2s,4s)-4-(11-amino-3-cyclopropyl-4-hydroxy-5,6-dihydroisoxazolo[4″,3″:6′,7′]cyclohepta[1′,2′:4,5]pyrrolo[2,3-d]pyrimidin-7(4H)-yl)cyclopentane-1,2-diol], the 50% inhibitory concentration (IC50) worked out at 0.034 µM in test [1]; 0.012 µM at RET kinase Wild Type; 0.131 µM in test [2]; 0.04 µM against G810R mutant RET kinase; 0.064 µM on RET kinase V804M; 0.032 µM at G810S mutant RET kinase.
Turning to `CC(C)n1c2c(c3c(N)ncnc31)-c1c(Cl)c3ccc(C(=O)NC4CC4)cc3n1CCC2` [Example 102, 1-Amino-14-chloro-N-cyclopropyl-5-isopropyl-5,6,7,8-tetrahydropyrimido[5″,4″:4′,5′]pyrrolo[3′,2′:3,4]azepino[1,2-a]indole-11-carboxamide], the IC50 in test [1] was determined as 0.035 µM; against RET kinase Wild Type, 0.128 µM; in test [2], 0.086 µM; against G810R mutant RET kinase, 0.76 µM; on RET kinase V804M, 0.483 µM; against G810S mutant RET kinase it was 0.183 µM.
With `Nc1ncnc2c1c1c(n2[C@H]2C[C@H](CO)C2)CCC(O)c2c-1noc2C1CC1` (stereo partly drawn) [Example 135, 11-Amino-3-cyclopropyl-7-((1r,3r)-3-(hydroxymethyl)cyclobutyl)-4,5,6,7-tetrahydroisoxazolo[4″,3″:6′,7′]cyclohepta[1′,2′:4,5]pyrrolo[2,3-d]pyrimidin-4-ol 2,2,2-trifluoroacetate], the concentration for half-maximal inhibition (IC50) in test [1] stood at 0.054 µM; against RET kinase Wild Type it was 0.045 µM; in test [2], 0.103 µM; against G810R mutant RET kinase, 0.15 µM; at RET kinase V804M, 0.152 µM; against G810S mutant RET kinase, 0.229 µM.
`CC1(n2c3c(c4c(N)ncnc42)-c2noc(C4CC4)c2C(O)CC3)CC1` (stereo not drawn) [Example 149, 11-Amino-3-cyclopropyl-7-(1-methylcyclopropyl)-4,5,6,7-tetrahydroisoxazolo[4″,3″:6′,7′]cyclohepta[1′,2′:4,5]pyrrolo[2,3-d]pyrimidin-4-ol]: the half-maximal inhibitory concentration (IC50) in test [1] was 0.002 µM; at RET kinase Wild Type it was 0.007 µM; in test [2], 0.02 µM; on G810R mutant RET kinase, 0.07 µM; on RET kinase V804M, 0.022 µM; against G810S mutant RET kinase, 0.041 µM.
With `CC(C)n1c2c(c3c(N)ncnc31)-c1cc3ccc(C(=O)Nc4ccn(-c5ccccc5)n4)cc3n1CCC2` [Example 100, 1-amino-5-isopropyl-N-(1-phenyl-1H-pyrazol-3-yl)-5,6,7,8-tetrahydropyrimido[5″,4″:4′,5′]pyrrolo[3′,2′: 3,4]azepino[1,2-a]indole-11-carboxamide], the IC50 came out at 0.01 µM in test [1]; 0.233 µM at RET kinase Wild Type; 0.015 µM in test [2]; 1.61 µM against G810R mutant RET kinase; 2.86 µM at RET kinase V804M; 0.914 µM against G810S mutant RET kinase.
In the case of `Nc1ncnc2c1c1c(n2C2CCOC2)CCC(O)c2c-1noc2C1CC1` (stereo not drawn) [Example 121, 11-amino-3-cyclopropyl-7-(tetrahydrofuran-3-yl)-4,5,6,7-tetrahydro-isoxazolo[4″,3″:6′,7′]cyclohepta[1′,2′:4,5] pyrrolo[2,3-d]pyrimidin-4-ol], the IC50 in test [1] was found to be 0.074 µM; at RET kinase Wild Type, 0.041 µM; in test [2], 0.118 µM; at G810R mutant RET kinase it was 0.087 µM; at RET kinase V804M, 0.12 µM; at G810S mutant RET kinase, 0.084 µM.
